The record followed here is ChEMBL document CHEMBL5390215, “SARS-CoV-2 papain-like protease (PLpro) inhibitory and antiviral activity of small molecule derivatives for drug leads” (Bioorg Med Chem Lett, 2023).

In one assay the test system is SARS-CoV. Nature of the assay: Antiviral activity against SARS-CoV-1 infected Chlorocebus sabaeus Vero E6 cells assessed as inhibition of viral replication. In kind it is functional. The following applies: Severe acute respiratory syndrome-related coronavirus, Vero C1008; read-out: ID50 (the source's name).
The next assay relates to SARS-CoV-2. Nature of the assay: Antiviral activity against SARS-CoV-2 infected Chlorocebus sabaeus Vero E6 cells assessed as inhibition of viral replication. The following applies: Severe acute respiratory syndrome coronavirus 2, Vero C1008; read-out: ID50 (the source's name). In kind it is functional.
Assay [1] deals with Replicase polyprotein 1ab (Severe acute respiratory syndrome-related coronavirus, UniProt P0C6X7). Nature of the assay: Inhibition of SARS-CoV-1 papain-like protease.
In assay [2] the target is Replicase polyprotein 1ab (Severe acute respiratory syndrome coronavirus 2, UniProt P0DTD1). The assay can be described thus: Inhibition of SARS-CoV-2 papain-like protease.

Each structure is given as a SMILES string. Some results are limits rather than exact numbers.

In the case of `COc1ccc(CNC(=O)C2CCN([C@H](C)c3cccc4ccccc34)CC2)cc1`, the IC50 turned out to be 10.2 µM in the assay on SARS-CoV, 17 µM in the assay on SARS-CoV-2, 0.56 µM in assay [1] and 0.92 µM in assay [2].

For the compound `COc1cccc(CNC(=O)C2CCN([C@H](C)c3ccc4ccccc4c3)CC2)c1`, the IC50 with SARS-CoV-2 was found to be 27 µM; in assay [1], 13.2 µM.

As to `CCCN(CCC)C(=O)c1ccc(C)c(C(=O)N[C@H](C)c2cccc3ccccc23)c1`, the IC50 (in the assay with SARS-CoV-2; in assay [2]) was over 100 µM throughout.

`C[C@@H](NS(=O)(=O)c1ccc([N+](=O)[O-])cc1)c1cccc2ccccc12`: the values for the IC50 (in the assay with SARS-CoV-2; in assay [2]) were 56 µM and 6.3 µM, respectively.

`C[C@@H](NC(=O)[C@@H](Cc1c[nH]c2ccccc12)NC(=O)OC(C)(C)C)c1cccc2ccccc12`: the IC50 in the assay with SARS-CoV-2 was 36 µM; in assay [2] it was over 100 µM.

In the case of `C[C@@H](NC(=O)[C@H](N)Cc1ccccc1)c1cccc2ccccc12`, the IC50 in the assay on SARS-CoV-2 is 76 µM; in assay [2] it was over 100 µM.

`COc1ccc(C(=O)N[C@H](C)c2cccc3ccccc23)cc1N`: the IC50 was over 100 µM with SARS-CoV-2 and 35.2 µM in assay [2].

As for `C[C@@H](NC(=O)[C@H](NC(=O)OC(C)(C)C)c1ccccc1)c1cccc2ccccc12`, the IC50 in the assay on SARS-CoV-2 is over 100 µM; in assay [2], 13.3 µM.

With `C[C@@H](NS(=O)(=O)c1cccc([N+](=O)[O-])c1)c1cccc2ccccc12`, the IC50 with SARS-CoV-2 amounted to 38 µM; in assay [2], 15.5 µM.

In the case of `C[C@@H](NC(=O)[C@@H](NC(=O)OC(C)(C)C)c1ccccc1)c1cccc2ccccc12`, the figures for the IC50 (in the assay on SARS-CoV-2; in assay [2]) were over 100 µM and 13.2 µM, respectively.

With `C[C@@H](NC(=O)[C@@H](Cc1ccccc1)NC(=O)OC(C)(C)C)c1cccc2ccccc12`, the IC50 in the assay with SARS-CoV-2 was 38 µM; in assay [2], over 100 µM.

With `C[C@@H](NS(=O)(=O)c1ccc(N)cc1)c1cccc2ccccc12`, the IC50 (with SARS-CoV-2; in assay [2]) was over 100 µM throughout.

Consider `Cc1ccc(C(=O)NC(C)C)cc1C(=O)N[C@H](C)c1cccc2ccccc12`, for which the IC50 (in the assay with SARS-CoV-2; in assay [2]) was over 100 µM in each case.

Consider `CCCN(CCC)C(=O)c1cccc(C(=O)N[C@H](C)c2cccc3ccccc23)c1`, for which the IC50 amounted to 15 µM in the assay on SARS-CoV-2 and 15.9 µM in assay [2].

As for `C[C@@H](NS(=O)(=O)c1cccc(N)c1)c1cccc2ccccc12`, the IC50 in the assay with SARS-CoV-2 amounted to 64 µM.

As for `C[C@@H](NC(=O)[C@H](N)Cc1c[nH]c2ccccc12)c1cccc2ccccc12`, the IC50 was 31 µM with SARS-CoV-2 and over 100 µM in assay [2].

Take `COc1ccc([C@@H](C)NC(=O)c2cc(N)ccc2C)c2ccccc12`: the IC50 in the assay with SARS-CoV-2 was 36 µM; in assay [2] it was over 100 µM.

With `Cc1ccc(N)cc1C(=O)N[C@H](C)c1cccc2ccccc12`, the IC50 in the assay with SARS-CoV-2 was 38 µM.

For the compound `CNCc1ccc(C)c(C(=O)N[C@H](C)c2cccc3ccccc23)c1`, in the assay with SARS-CoV-2, the IC50 turned out to be 20 µM.

Turning to `Cc1ccc(CN)cc1C(=O)N[C@H](C)c1cccc2ccccc12`, the IC50 in the assay with SARS-CoV-2 turned out to be 24 µM.
